# In US6060451A, “Thrombin inhibitors based on the amino acid sequence of hirudin” (The National Research Council of Canada, priority 1995, dated 2000):
# pIC50, pKi: −log10 of the molar value. Several values for one entry are separate records, joined by “and”; a condition that tells them apart may be missing. Equal values may be shown once. Non-standard residues stand in square brackets, D forms with d.
# How the values were obtained:
# thrombin [1] = biological target: T1, thrombin (Homo sapiens, UniProt P00734); assay: Thrombin time in buffer containing fibrinogen (dTT); assay type: biochemical; conditions: read-out: IC50 dTT (concentration required to double thrombin time)
# Text: *Concentration of compound required to double thrombin time in buffer
# [2] = test system: carotid artery thrombosis; assay: Ferric chloride injury-induced thrombosis model in carotid artery; conditions: rat carotid artery, FeCl3 injury; control patency time 19 ± 1 min
# thrombin [3] = biological target: T1, thrombin; assay: Antithrombin activity in vitro, Ki (Table III); assay type: biochemical; conditions: first test where two are given; means for 3-5 observations
# Description: The reactions were initiated by addition of the substrate dissolved in 0.1 M Tris-HCl buffer, pH 7.8 to a preincubated solution of enzyme (0.4 or 0.04 nM) and variable concentrations of inhibitor dissolved in the same buffer. Initial velocities were recorded and Ki values were determined graphically by weighted linear regression of Dixon plots in the case of competitive inhibition, or by the method of Baici (Baici, 1981) for hyperbolic inhibition. Fluorogenic assays were conducted using the same conditions and instrument as above operating in the fluorescence mode in the Ratio (λex=383 nm, λem=455 nm). Fluorescence intensities were calibrated with 7-amino-4-methyl coumarin solution of known concentration. The specificity of the synthetic peptides of the present invention for human α-thrombin may also be determined by comparing their relative inhibitory activities towards both human α-thrombin and bovine α-thrombin and trypsin by comparing Ki values obtained in the amidolytic assay of thrombin activity.
# human plasma clotting = assay: Human plasma clotting time; assay type: biochemical; conditions: read-out: IC50 plasma clotting time (concentration required to inhibit human plasma clotting time by 50%)
# Description: Thus, for the determination of prothrombin time, 50 μl of reconstituted citrated normal human plasma (Sigma, St-Louis, Mo.) is mixed with 50 μl of thromboplastin solution at 37° C. in a 400 μl cuvette. […] The clotting time is recorded following recalcification with 100 μl of 25 mM CaCl2. The clotting time in the absence of inhibitor was between 19-22 sec.
# The same procedure is adopted for the determination of activated partial thromboplastin time except that reconstituted plasma is activated for 3 minutes with cephalin (Sigma, St-Louis, Mo.).
# **Concentration of compound required to inhibit human plasma clotting tim
# platelets = assay: Thrombin-induced platelet aggregation; assay type: cell-based
# Description: The inhibitory activity of some of the peptides of the present invention toward thrombin is reflected by their ability to inhibit thrombin-mediatedplatelet aggregation as shown in FIG. 2. Platelet rich plasma containing variable concentrations of P79 is treated with thrombin. Platelet aggregation, reflected by increased light transmittance is measured on a Bio Data PAP-4 aggregometer.
# [4] = test system: activated partial thromboplastin time; assay: Increase in APTT, bolus plus infusion model; assay type: in vivo, rat; set-up: Infusion Dose needed to cause 2-4 fold increase in APTT: unit not given here; conditions: intravenous bolus followed by infusion
# [5] = test system: platelet deposition on arterial media; assay: Pig angioplasty model, ex vivo platelet deposition on arterial media; assay type: in vivo
# Description: The study investigates the dose range required to inhibit platelet deposition on arterial media and aggregation ex vivo in the pig using a bolus and infusion regimen of the compounds of the invention. The study was carried out according to Lam, J. Y. T. et al., Circulation 84:2, August 1991, 814-820. A brief outline of the protocol follows.
# Normal 3-4 month old pigs were used. In all pigs, autologous platelets were labeled with 300-400 μCi ^111 In-tropolone 18-24 hours before angioplasty. The pigs were sedated with 300 mg i.m. ketamine. After inhalation of the ether, the pigs were intubated, mechanically ventilated with room air by a respirator and maintained anesthetized with 0.5% halothane. Immediately after catheter insertion, a single bolus of heparin was administered to animals receiving platelet-inhibitor therapy and their matching controls corresponding to a dose less than 3.1 units/kg/min. Heparin was not administered to animals receiving hirudin or their matching controls.
# An 8F balloon dilation catheter was advanced under fluoroscopic control through a right femoral cut down into the left and right common carotid arterial segment between the fifth and fourth vertebrae. Five inflations were performed, 30 seconds each at 6 atm with 60 seconds between inflations. The angiographic lumen diameter before dilation ranged from 5 to 6 mm during dilation, the diameter of the inflated balloon within the artery was not more than 10% greater than the original arterial lumen. […]
# The platelet deposition on each dilated artery was calculated from the platelet counts and ^111 In activity on the arterial wall and in the blood obtained. The percentage of radioactivity bound to platelets was determined and the number of platelets per counts per minute was calculated from known blood platelet counts. The number of platelets deposited on the arterial segments per square centimeter was calculated by dividing the arterial segment counts per minute by both the number of platelets per counts per minute and the arterial surface area.
# [6] = test system: venous thrombosis in vena cava; assay: Venous thrombosis model (balloon catheter induced-injury and stasis in vena cava); assay type: in vivo, rat; conditions: rats, i.v. bolus
# Description: Rats ranging in weight from 350 g-450 g were anaesthetized with urethane [50%] at 1500 mg/kg IP. The abdomen and neck were shaved and prepared for surgery.
# An incision was made from the base of the sternum to approximately 10-20 mm up from the penile sheath. Another incision was made across the end of the incision (90 degree) to create a flap to be hemostat open. […] Two sutures were loosely looped around the vein(1) and the vein and artery(2), just posterior to the renal veins and arteries. All other branches coming off dorsally from the vena cava were ligated as well as any other veins which may branch of this vein (approximately 4-6 depending on rat). Two more sutures were looped around the vein(1) and artery and vein(2) at the bifurcation of the femoral vein and artery. The right jugular vein was isolated, for later injection of compound.
# An incision in the upper interior leg was made and the femoral vein and artery were exposed. The femoral vein was isolated and two sutures were looped around it. One suture was ligated distally, and the other one was pulled tight (proximal) to stop blood flow through the vessel. A very small incision was made into the vein and a 2F fogarty catheter was inserted. The catheter was fed up the femoral vein to the upper sutures (near the renal veins). At this point, inject the compound via the isolated right jugular vein and wait 1 minute. At 1 minute inflate the fogarty catheter with enough saline to distend the vena cava, but still allowing the catheter to be pulled back down to the point of femoral bifurcation without bursting the vessel. This procedure was repeated 3 times. After the third passage, the catheter was removed and as quickly as possible, the femoral incision was ligated with the proximal suture and the suture which was looped around only the vena cava was ligated to stop return flow and allow thrombus growth and the timer was set for 30 minutes.
# At this point, the intestines may be placed back in the body cavity, and moistened with saline if any drying has occurred, and skin kept closed with hemostat. […]
Substance,pIC50 (thrombin [1]),Dose to double patency time [2] [mg/kg],pKi (thrombin [3]),pIC50 (human plasma clotting),pIC50 (platelets),Bolus Dose needed to cause 2-4 fold increase in APTT [4] [mg/kg],Infusion Dose needed to cause 2-4 fold increase in APTT [4],"Decrease of platelet deposition on arterial media relative to baseline control, mean ([5]; four animals) [%]","Platelet deposition after drug infusion, X±SEM ([5]; i.v. bolus 0.2 mg/kg then infusion 0.2 mg/kg/hr, four animals, paired T P=0.0001)","Platelet deposition after drug infusion, single animals ([5]; i.v. bolus 0.2 mg/kg then infusion 0.2 mg/kg/hr, mean of three determinations per animal, animals 1-4, listed as BCH-1710)",Minimum Bolus dose needed to achieve patency [6] [mg/kg]
(D-Phe)-Pro-Arg-(CH2)4 (CO)--[NH(CH2)4 (CO)]2 -DF-(4-thiahomoGlu)-PIPL-TFA salt [BCH-2758],8.31,4,9.02,7.52,8.00,,,,,,
Ac(D-Phe)-Pro-Arg-(CH2)4 (CO)--[NH--CH2 --CH=CH--CH2 --(CO)]2 -DFEPIPL-OH (Ac-[dF]PR[(CH2)4CO][NHCH2CH:CHCH2CO][NHCH2CH:CHCH2CO]DFEPIPL-OH; numbers in words are those of the source; also: Arg carbonyl bonded to (CH2)4 (non-amide backbone link)) [P184],7.98,1 to 2,8.82,7.28,8.22,1,125,61.2,39.8±12.7 % of control,31.9 % of control and 23.7 % of control and 3.7 % of control and 84.3 % of control,0.5 to 2
